The values that follow come from ChEMBL document CHEMBL1156471, “Targeting host cell furin proprotein convertases as a therapeutic strategy against bacterial toxins and viral pathogens” (J Biol Chem, 2007).

Non-standard residues stand in square brackets, D forms with d. Residues, ends and D or L forms follow the SMILES beside them. Sar = CNCC(=O)O

The target in the assay is Furin (Homo sapiens, UniProt P09958).
Chain of Furin (P09958 whole entry): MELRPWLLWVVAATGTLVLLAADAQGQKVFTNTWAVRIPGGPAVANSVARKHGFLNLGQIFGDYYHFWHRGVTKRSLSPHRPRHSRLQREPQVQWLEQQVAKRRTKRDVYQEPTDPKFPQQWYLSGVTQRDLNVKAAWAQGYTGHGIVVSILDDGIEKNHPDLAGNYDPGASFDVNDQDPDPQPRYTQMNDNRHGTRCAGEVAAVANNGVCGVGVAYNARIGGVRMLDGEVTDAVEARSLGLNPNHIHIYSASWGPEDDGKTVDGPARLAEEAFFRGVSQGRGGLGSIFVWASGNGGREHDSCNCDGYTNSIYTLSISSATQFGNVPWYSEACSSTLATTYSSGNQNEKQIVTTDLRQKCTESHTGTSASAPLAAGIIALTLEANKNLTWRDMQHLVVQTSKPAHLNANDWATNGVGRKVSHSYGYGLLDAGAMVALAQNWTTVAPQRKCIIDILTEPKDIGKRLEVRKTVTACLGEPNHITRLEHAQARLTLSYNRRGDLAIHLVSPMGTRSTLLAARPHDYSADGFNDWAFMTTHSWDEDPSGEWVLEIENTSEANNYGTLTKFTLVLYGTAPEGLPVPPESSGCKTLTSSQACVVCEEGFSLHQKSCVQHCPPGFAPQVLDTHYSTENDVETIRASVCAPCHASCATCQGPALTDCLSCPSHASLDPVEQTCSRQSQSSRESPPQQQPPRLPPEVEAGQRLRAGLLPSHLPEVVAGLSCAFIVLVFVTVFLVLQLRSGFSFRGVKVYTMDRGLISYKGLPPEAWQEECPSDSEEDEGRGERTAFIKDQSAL
For orientation: Ki means a measure of affinity in units of concentration, obtained from inhibition or displacement. In turn, `C[C@@H](O)[C@H](N)C(=O)N1CCC[C@H]1C(=O)N[C@@H](CCCNC(=N)N)C(=O)NCCCCCC(=O)N[C@@H](CCCNC(=N)N)C(=O)N[C@@H](CCCNC(=N)N)C(=O)N[C@@H](CCCNC(=N)N)C(=O)N[C@@H](CCCCN)C(=O)N[C@@H](CCCCN)C(=O)N[C@@H](CCCNC(=N)N)C(=O)NCC(N)=O` showed a Ki of over 100 nM.

Consider `C[C@H](NC(=O)[C@H](C)NC(=O)[C@H](CCCNC(=N)N)NC(=O)[C@H](CCCNC(=N)N)NC(=O)[C@H](CCC(=O)O)NC(=O)[C@H](CCCNC(=N)N)NC(=O)[C@@H]1CCCN1C(=O)[C@@H](N)[C@@H](C)O)C(=O)N[C@@H](CCCCN)C(=O)N[C@@H](CCCNC(=N)N)C(=O)N(C)CC(=O)O` (H-TPRERRAAKR[Sar]-OH), for which the Ki is over 100 nM.

Regarding H-TPRSRRRKKRG-OH, the Ki is over 100 nM.

Consider H-GAGAGATPRARRRKKRY-OH, for which the Ki was 57 nM.

H-TARERRRKKRV-OH gave a Ki of over 100 nM.

Regarding H-TPRERRAKKRG-OH, the Ki was over 100 nM.

H-TPRFRRRKKRG-OH returned a Ki of over 100 nM.

`CSC[C@H](NC(=O)[C@H](CCCN=C(N)N)NC(=O)[C@H](CCCCN)NC(=O)[C@H](CCCCN)NC(=O)[C@H](CCCN=C(N)N)NC(=O)[C@H](CCCN=C(N)N)NC(=O)[C@H](CCCN=C(N)N)NC(=O)[C@H](C)NC(=O)[C@H](CCCN=C(N)N)NC(=O)[C@@H]1CCCN1C(=O)[C@@H](N)[C@@H](C)O)C(=O)O` came in with a Ki of 65 nM.

In the case of H-TPRARRRKKRQ-OH, the Ki came out at 47 nM.

As to `C[C@H](NC(=O)[C@H](CCCNC(=N)N)NC(=O)[C@H](CCC(N)=O)NC(=O)[C@@H]1CCCN1C(=O)[C@@H](N)[C@@H](C)O)C(=O)N[C@@H](CCCNC(=N)N)C(=O)N[C@@H](CCCNC(=N)N)C(=O)N[C@@H](CCCNC(=N)N)C(=O)N[C@@H](CCCCN)C(=O)N[C@@H](CCCCN)C(=O)N[C@@H](CCCNC(=N)N)C(=O)N[C@H](CCCNC(=N)N)C(=O)O`, the Ki is over 100 nM.

Regarding `C[C@H](NC(=O)[C@H](CCCNC(=N)N)NC(=O)[C@H](CCC(N)=O)NC(=O)[C@@H]1CCCN1C(=O)[C@@H](N)[C@@H](C)O)C(=O)N[C@@H](CCCNC(=N)N)C(=O)N[C@@H](CCCNC(=N)N)C(=O)N[C@@H](CCCNC(=N)N)C(=O)N[C@@H](CCCCN)C(=O)N[C@@H](CCCCN)C(=O)N[C@@H](CCCNC(=N)N)C(=O)N[C@@H](CCCCN)C(=O)O`, the Ki is over 100 nM.

For the compound H-GGGGGGTPRARRRKKRF-OH, affinity was put at a Ki of 45 nM.

Turning to H-TPRDRRRKKRG-OH, the Ki is over 100 nM.

Consider `C[C@H](NC(=O)[C@H](C)NC(=O)[C@H](CCCN=C(N)N)NC(=O)[C@H](CCCN=C(N)N)NC(=O)[C@H](CCCN=C(N)N)NC(=O)[C@H](CCC(=O)O)NC(=O)[C@H](CCCN=C(N)N)NC(=O)[C@@H]1CCCN1C(=O)[C@@H](N)[C@@H](C)O)C(=O)N[C@@H](CCCN=C(N)N)C(=O)N(C)CC(=O)O`, for which the Ki was over 100 nM.

Regarding H-TPQRARRRKKRV-OH, the Ki came to 48 nM.

The compound H-TPAERRRKKR-OH gave a Ki of over 100 nM.

The compound `C[C@H](N)C(=O)N[C@@H](C)C(=O)N[C@@H](CCCN=C(N)N)C(=O)N[C@@H](CCC(=O)O)C(=O)N[C@@H](CCCN=C(N)N)C(=O)N[C@@H](CCCN=C(N)N)C(=O)N[C@@H](CCCN=C(N)N)C(=O)N[C@@H](CCCCN)C(=O)N[C@@H](CCCCN)C(=O)N[C@@H](CCCN=C(N)N)C(=O)N(C)CC(=O)O` (H-AARERRRKKR[Sar]-OH) gave a Ki of over 100 nM.

With H-TPRCRRRKKRG-NH2, the inhibition constant Ki is over 100 nM.

As to H-APRERRRKKRV-OH, the inhibitory constant (Ki) was over 100 nM.

Regarding H-TPREAAAKKR-OH, the Ki was over 100 nM.

For the compound H-TPRERRAAKRV-OH, the Ki was over 100 nM.

Compound H-TPRARRRKKRH-OH displayed a Ki of over 100 nM.

As to `C[C@@H](O)[C@H](N)C(=O)N1CCC[C@H]1C(=O)N[C@@H](CCC(N)=O)C(=O)N[C@@H](CCCN=C(N)N)C(=O)NC1(C(=O)N[C@@H](CCCN=C(N)N)C(=O)N[C@@H](CCCN=C(N)N)C(=O)N[C@@H](CCCN=C(N)N)C(=O)N[C@@H](CCCCN)C(=O)N[C@@H](CCCCN)C(=O)N[C@@H](CCCNC(=N)N)C(=O)NCC(=O)O)CCCC1`, the Ki was over 100 nM.

H-TPREARRKKRV-OH displayed a Ki of over 100 nM.

For `C[C@@H](O)[C@H](N)C(=O)N1CCC[C@H]1C(=O)N[C@@H](CCCNC(=N)N)C(=O)N[C@@H](CCC(=O)O)C(=O)N[C@@H](CCCNC(=N)N)C(=O)N[C@@H](CCCNC(=N)N)C(=O)N[C@@H](CCCNC(=N)N)C(=O)N[C@@H](CCCCN)C(=O)N[C@@H](CCCCN)C(=O)N[C@@H](CCCNC(=N)N)C(=O)NCC(=O)O`, the Ki was over 100 nM.

`C[C@H](NC(=O)[C@H](CCCCN)NC(=O)[C@H](CCCNC(=N)N)NC(=O)[C@H](CCCNC(=N)N)NC(=O)[C@H](CCCNC(=N)N)NC(=O)[C@H](CCC(=O)O)NC(=O)[C@H](CCCNC(=N)N)NC(=O)[C@@H]1CCCN1C(=O)[C@@H](N)[C@@H](C)O)C(=O)N[C@@H](C)C(=O)N(C)CC(=O)O` (H-TPRERRRKAA[Sar]-OH) came in with a Ki of over 100 nM.

Regarding `C[C@@H](O)[C@H](N)C(=O)N1CCC[C@H]1C(=O)N[C@@H](CCCN=C(N)N)C(=O)N[C@@H](CCC(=O)O)C(=O)N[C@@H](CCCN=C(N)N)C(=O)N[C@@H](CCCN=C(N)N)C(=O)N[C@@H](CCCN=C(N)N)C(=O)N[C@@H](CCCCN)C(=O)N[C@@H](CCCCN)C(=O)N[C@@H](CCCNC(=N)N)C(=O)NCC(N)=O`, the Ki is over 100 nM.

With `C[C@@H](O)[C@H](N)C(=O)N1CCC[C@H]1C(=O)N[C@@H](CCC(N)=O)C(=O)N[C@@H](CCCN=C(N)N)C(=O)N[C@H](CCCN=C(N)N)C(=O)N[C@@H](CCCN=C(N)N)C(=O)N[C@@H](CCCN=C(N)N)C(=O)N[C@@H](CCCN=C(N)N)C(=O)N[C@@H](CCCCN)C(=O)N[C@@H](CCCCN)C(=O)N[C@@H](CCCNC(=N)N)C(=O)NCC(=O)O`, the Ki is over 100 nM.

The compound H-GGGGGGTPRARRRKKRY-OH came in with a Ki of 54 nM.

In the case of H-TPRERRRAKR-OH, the Ki was over 100 nM.

As to `C[C@H](NC(=O)[C@H](C)NC(=O)[C@H](CCCNC(=N)N)NC(=O)[C@@H]1CCCN1C(=O)[C@@H](N)[C@@H](C)O)C(=O)N[C@@H](CCCNC(=N)N)C(=O)N[C@@H](CCCNC(=N)N)C(=O)N[C@@H](CCCCN)C(=O)N[C@@H](CCCCN)C(=O)N[C@@H](CCCNC(=N)N)C(=O)N(C)CC(=O)O` (H-TPRAARRKKR[Sar]-OH), the Ki is over 100 nM.

In turn, H-TPRIRRRKKRG-NH2 came in with a Ki of over 100 nM.

`CC(C)C[C@H](NC(=O)[C@H](CCCN=C(N)N)NC(=O)[C@H](CCCCN)NC(=O)[C@H](CCCCN)NC(=O)[C@H](CCCN=C(N)N)NC(=O)[C@H](CCCN=C(N)N)NC(=O)[C@H](CCCN=C(N)N)NC(=O)[C@H](C)NC(=O)[C@H](CCCN=C(N)N)NC(=O)[C@@H]1CCCN1C(=O)[C@@H](N)[C@@H](C)O)C(=O)O` registered a Ki of over 100 nM.

The compound H-AARERRRKKR-OH had a Ki of over 100 nM.

As for H-TPQRARRRKKRE-OH, the affinity corresponds to a Ki of 103 nM.

The compound `C[C@H](NC(=O)[C@H](CCCNC(=N)N)NC(=O)[C@H](CCC(=O)O)NC(=O)[C@H](CCCNC(=N)N)NC(=O)[C@@H]1CCCN1C(=O)[C@@H](N)[C@@H](C)O)C(=O)N[C@@H](CCCNC(=N)N)C(=O)N[C@@H](CCCCN)C(=O)N[C@@H](CCCCN)C(=O)N[C@@H](CCCNC(=N)N)C(=O)N(C)CC(=O)O` (H-TPRERARKKR[Sar]-OH) gave a Ki of over 100 nM.

Regarding `CC[C@H](NC(=O)[C@H](CCCNC(=N)N)NC(=O)[C@H](CCC(N)=O)NC(=O)[C@@H]1CCCN1C(=O)[C@@H](N)[C@@H](C)O)C(=O)N[C@@H](CCCNC(=N)N)C(=O)N[C@@H](CCCNC(=N)N)C(=O)N[C@@H](CCCNC(=N)N)C(=O)N[C@@H](CCCCN)C(=O)N[C@@H](CCCCN)C(=O)N[C@@H](CCCNC(=N)N)C(=O)NCC(=O)O`, the Ki was over 100 nM.

As for H-TPQRFRRRKKRG-OH, the Ki was over 100 nM.

As for H-TPRARRRKKRG-NH2, the Ki turned out to be 57 nM.

In turn, `C[C@@H](O)[C@H](N)C(=O)N1CCC[C@H]1C(=O)N[C@@H](CCC(N)=O)C(=O)N[C@@H](CCCNC(=N)N)C(=O)NCCC(=O)N[C@@H](CCCN=C(N)N)C(=O)N[C@@H](CCCN=C(N)N)C(=O)N[C@@H](CCCN=C(N)N)C(=O)N[C@@H](CCCCN)C(=O)N[C@@H](CCCCN)C(=O)N[C@@H](CCCNC(=N)N)C(=O)NCC(=O)O` gave a Ki of over 100 nM.

H-GGGTPRARRRKKRY-OH had a Ki of 42 nM.

The compound `C[C@@H](O)[C@H](N)C(=O)N1CCC[C@H]1C(=O)N[C@@H](CCCN=C(N)N)C(=O)N[C@@H](CCCNC(N)=O)C(=O)N[C@@H](CCCN=C(N)N)C(=O)N[C@@H](CCCN=C(N)N)C(=O)N[C@@H](CCCN=C(N)N)C(=O)N[C@@H](CCCCN)C(=O)N[C@@H](CCCCN)C(=O)N[C@@H](CCCN=C(N)N)C(=O)NCC(=O)O` returned a Ki of over 100 nM.

As for H-TPRERRRAKRG-NH2, the Ki was over 100 nM.

For the compound H-TPRERRRKARG-NH2, the Ki is over 100 nM.

The compound `C[C@@H](O)[C@H](N)C(=O)N1CCC[C@H]1C(=O)N[C@@H](CCCN=C(N)N)C(=O)N[C@H](CCCCN)C(=O)N[C@@H](CCCN=C(N)N)C(=O)N[C@@H](CCCN=C(N)N)C(=O)N[C@@H](CCCN=C(N)N)C(=O)N[C@@H](CCCCN)C(=O)N[C@@H](CCCCN)C(=O)N[C@@H](CCCN=C(N)N)C(=O)NCC(N)=O` gave a Ki of over 100 nM.

Turning to H-TPAAARRKKRV-OH, the Ki is over 100 nM.

H-TPQRARRRKKRL-OH yielded a Ki of over 100 nM.

As to H-TPRQRRRKKRG-OH, the Ki was over 100 nM.

In turn, H-TPREARRKKRG-OH had a Ki of over 100 nM.

Consider H-TPRERRRAKRV-OH, for which the Ki was over 100 nM.

H-TPRYRRRKKRG-OH: the Ki was over 100 nM.

As for `C[C@@H](O)[C@H](N)C(=O)N1CCC[C@H]1C(=O)N[C@@H](CCC(N)=O)C(=O)N[C@@H](CCCN=C(N)N)C(=O)N[C@@H](CCCCN)C(=O)N[C@@H](CCCN=C(N)N)C(=O)N[C@@H](CCCN=C(N)N)C(=O)N[C@@H](CCCN=C(N)N)C(=O)N[C@@H](CCCCN)C(=O)N[C@@H](CCCCN)C(=O)N[C@@H](CCCNC(=N)N)C(=O)NCC(=O)O`, the Ki was over 100 nM.

H-TAAERRRKKRG-OH: the Ki was over 100 nM.

Compound H-TPRERRRKAA-OH returned a Ki of over 100 nM.

H-TPQRARRRKKRS-OH registered a Ki of over 100 nM.

H-TPRCRRRKKRG-OH displayed a Ki of over 100 nM.

H-TPQRARRRKKRQ-OH gave an inhibition constant (Ki) of over 100 nM.
